The kinase profiling compilation of Christmann-Franck et al. (2016)

Target: SGK1 (human) (UniProt O00141)
Assay: Flashplate

Chain of SGK1 (human) (O00141 whole entry, looked up): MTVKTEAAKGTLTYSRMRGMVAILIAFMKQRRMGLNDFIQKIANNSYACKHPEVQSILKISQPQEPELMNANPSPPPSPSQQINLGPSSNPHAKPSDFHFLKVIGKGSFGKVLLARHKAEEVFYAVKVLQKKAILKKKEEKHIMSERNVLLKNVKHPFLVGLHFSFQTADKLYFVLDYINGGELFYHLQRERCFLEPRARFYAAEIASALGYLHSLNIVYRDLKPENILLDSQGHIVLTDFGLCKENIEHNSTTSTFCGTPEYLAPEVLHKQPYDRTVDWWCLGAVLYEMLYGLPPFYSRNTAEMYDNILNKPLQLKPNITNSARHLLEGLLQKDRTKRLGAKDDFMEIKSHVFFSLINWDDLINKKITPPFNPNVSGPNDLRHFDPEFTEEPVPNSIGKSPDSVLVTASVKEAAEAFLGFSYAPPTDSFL

| SMILES | Ki |
| --- | --- |
| O=C(Cc1ccccc1)Nc1cccc(-c2nc3sccn3c2-c2ccnc(Nc3ccc(N4CCOCC4)cc3)n2)c1 | > 10 µM |
| O=C(Nc1cccc(C(F)(F)F)n1)Nc1ccnc2cc(C(F)(F)F)ccc12 | > 10 µM |
| COc1cc(Nc2nccc(Nc3cc(C4CCCCC4)no3)n2)cc(OC)c1OC | > 10 µM |
| Clc1cc(-c2c[nH]c3ncccc23)nc(NC2CCCCC2)n1 | 0.794 µM |
| COc1cccc([C@H](C)NC(=O)c2ccc(-c3ccncc3)cc2)c1 | > 10 µM |
| Nc1ncnc2c1c(I)nn2[C@H]1CC[C@@H](O)CC1 | 2 µM |
| Cc1cccc(NC(=O)Nc2ccc(-c3csc4c(C#Cc5cccnc5)cnc(N)c34)cc2)c1 | > 10 µM |
| CCCCOc1ncnc2[nH]cc(-c3ccccc3)c12 | 2.51 µM |
| CC(C)(C)C(=O)Oc1ccc2c(c1)nc(NC(=O)c1cccc([N+](=O)[O-])c1)n2CCCO | > 10 µM |
| Cn1cncc1C(OCc1c(-c2ccc(OC(F)(F)F)cc2)cc(C#N)c(=O)n1C)c1ccc(C#N)cc1 (stereo not drawn) | > 10 µM |
| COc1cccc(-c2cc3c(=O)[nH]c4ccccc4n3c2)c1 | > 10 µM |
| O=c1c(NCCc2ccc(Oc3ccccc3)cc2)c(Nc2ccncc2)c1=O | > 10 µM |
| O=C(NCCCCCCNC(=O)Nc1cccnc1)Nc1cccnc1 | > 10 µM |
| COc1ccc2c(NC(=O)Nc3cccc(C(F)(F)F)n3)ccnc2c1 | > 10 µM |
| O=C(Nc1cnc2[nH]cc(-c3ccccc3)c2c1)c1c(F)cccc1F | 0.631 µM |
| O=C(O)c1c2c(nc3ccccc13)C(=C1CCCC1)CC2 | > 10 µM |
| Cc1ccc(Nc2nc3ccc([N+](=O)[O-])cc3[nH]2)nc1 | 0.794 µM |
| Cc1nn(C)c(C)c1-c1cccc2c(CCCOc3cccc4ccccc34)c(C(=O)O)[nH]c12 | > 10 µM |

Other lines, results leading:

| Ki | SMILES |
| --- | --- |
| > 10 µM | CC1CSc2c(C(=O)O)c(=O)c3cc(F)c(N4CC[C@@H](N)C4)c(F)c3n21 (stereo partly drawn) |
| > 10 µM | COc1cc(S(C)(=O)=O)c(OC)cc1CC(=O)Nc1cc(N)c(C#N)c(OC(C)C)n1 |
| > 10 µM | O=c1[nH]c2cnc(-n3cnc4ccc(F)cc43)nc2n1[C@@H]1CCOc2c(F)cccc21 |
| > 10 µM | O=C(NCc1ccccc1)Nc1ncc([N+](=O)[O-])s1 |
| > 10 µM | COc1cc(C(=O)O)c(Cl)cc1NC(=O)Nc1cnc(C#N)cn1 |
| > 10 µM | Cn1nc(N)c2c(-c3ccc(NC(=O)Nc4cccc(C(F)(F)F)c4)cc3)cncc21 |
| > 10 µM | Clc1csc2ncnc(Nc3ccccc3)c12 |
| > 10 µM | O=C(c1cc(-c2ccc3[nH]ncc3c2)on1)N1CCCCC1 |
| > 10 µM | COc1cc(-c2ccc3c(c2)Nc2ccc([N+](=O)[O-])cc2NC3=O)ccc1O |
| > 10 µM | CN(C(=O)C1CCCCC1)c1ccc2c(c1)nc(NC(=O)c1ccc(C#N)cc1)n2CCC(N)=O |
| > 10 µM | Nc1nccc2scc(-c3ccc(NC(=O)Nc4ccccc4C(F)(F)F)cc3)c12 |
| > 10 µM | CC(C)Oc1nccn2c(-c3ccnc(NCC(C)(C)CO)n3)c(-c3ccc(F)cc3F)nc12 |
| > 10 µM | O=c1[nH]cnc2c1sc1c(Cl)ccc(Cl)c12 |
| 0.398 µM | CC(=O)NCC(=O)N1C2CCC1c1cc(Nc3ncc(C(F)(F)F)c(NC4CCC4)n3)ccc12 (stereo not drawn) |
| > 10 µM | COc1ccc(-c2ccc(NC(=O)Nc3cccc(Br)c3)cc2)c2c(N)noc12 |
| 2.51 µM | Nc1n[nH]c2nnc(-c3ccccc3)c(-c3ccccc3)c12 |
| > 10 µM | Nc1nccc2scc(-c3ccc(NC(=O)Nc4cccc(Cl)c4)cc3)c12 |
| 0.398 µM | COc1ccc(C(=O)N2c3ccccc3Sc3c(Cl)cncc32)cc1 |
| > 10 µM | Nc1ncnc2c1c(-c1cccc(OCc3ccccc3)c1)cn2[C@H]1CC[C@H](N2CCCC2)CC1 |
| > 10 µM | COc1cccc(Nc2ncnc3ccccc23)c1 |
| > 10 µM | O=C(O)c1cc2c(-c3cccc(F)c3)cncc2s1 |
| > 10 µM | O=C(NCCCCCCNC(=O)NCc1cccnc1)NCc1cccnc1 |
| > 10 µM | Cc1ccc(-n2nc(C)c3c(=O)c4cc(Cl)ccc4n(O)c32)cc1 |
| 1 µM | OCC[C@@H](Nc1nc2ccc(-c3ccncc3)cc2s1)c1ccccc1 |
| 0.398 µM | Nc1n[nH]c2cccc(-c3ccc(NC(=O)Nc4cc(CO)ccc4F)cc3)c12 |
